Assay results: patent US20230078702A1, “USE OF MITOXANTRONE HYDROCHLORIDE LIPOSOME FOR TREATING BREAST CANCER” (CSPC ZHONGQI PHARMACEUTICAL TECHNOLOGY (SHIJIAZHUANG) CO., …, priority 2020, published 2023)
Counter-ions that a name gives are not always drawn.

Columns and labels:
[1] = test system: patients with advanced recurrent or metastatic breast cancer; conditions: human, in vivo
Experimental: The study is a randomized, open-labeled, active controlled, single center study to evaluate the safety and efficacy of the mitoxantrone hydrochloride liposome injection in patients with advanced recurrent or metastatic breast cancer.
Investigational product: mitoxantrone hydrochloride liposome injection (PLM60 (10 mg/10 mL/vial)) was added to 250 mL of 5% glucose at a dose of 20 mg/m^2 and was administered intravenously over 1 h.
Reference product: mitoxantrone hydrochloride injection (5 mg/5 mL/vial, manufactured by Sichuan Sunnyhope Pharmaceutical, Inc., supplied by CSPC ZHONGQI Pharmaceutical Technology (Shijiazhuang) Co., Ltd., Lot No. 1501201) was added to 100 mL of 5% glucose injection at a dose of 14 mg/m^2 and was administered intravenously over 30 min.
The safety assessment indicators included: vital signs, adverse events, laboratory tests (complete blood test, routine urinalysis, blood biochemistry, electrocardiogram, echocardiogram), and early withdrawal. Safety assessment criteria: NCI-CTC 4.0.
For the drug mitoxantrone, the most serious adverse event is cardiotoxicity. Clinical studies and practical observations have shown that the cardiotoxicity caused by anthracyclines are mainly progressive and irreversible. Especially anthracyclines can easily cause cardiac damage at first use. Cardiotoxicity is a common concern for clinicians since it is a long-term cumulative dose-limiting toxicity. The incidence of increased troponin T and the incidence of increased brain natriuretic peptide were used as indices for examining cardiotoxicity in this trial. The change of the cardiac troponin T level can reflect myocardium damage with high sensitivity; brain natriuretic peptide is a polypeptide hormone secreted by cardiomyocytes in the heart ventricles in response to stretching caused by increased ventricular blood volume and increased ventricular pressure.

[2] = test system: patients with advanced recurrent or metastatic breast cancer; assay: Efficacy evaluation (RECIST 1.1) in randomized, open-labeled, active controlled clinical study; format: in vivo, human; parameters: disease control rate (PR+SD): concentration or dose not given beside the values
Experimental: A tumor assessment was performed at baseline.
During the treatment period, the efficacy evaluation was performed once every two cycles; in addition, when the efficacy evaluation result was PR or CR, the efficacy should be radiologically confirmed after 4 weeks. After the completion of the treatment, the evaluation was performed every 3 months until disease progression. Tumor evaluation was performed according to RECIST 1.1 criteria.
Primary efficacy endpoint: objective response rate (ORR), referring to the ratio of subjects reaching PR and CR.
Secondary efficacy endpoint: progression-free survival (PFS), referring to the time from the start of randomization to disease progression or death.

## O=C1c2c(O)ccc(O)c2C(=O)c2c(NCCNCCO)ccc(NCCNCCO)c21 [Control group, mitoxantrone hydrochloride]
[1]
  Anemia, number of subjects: 14
  Decreased neutrophil count, number of subjects: 29
  Decreased platelet count, number of subjects: 16
  Decreased white blood cell count, number of subjects: 29
  Fever, number of subjects: 3
  Incidence of fever: (10.0%)
  Incidence of increased alanine aminotransferase: (26.70%)
  Incidence of increased blood bilirubin: (20.00%)
  Incidence of skin hyperpigmentation: 3.3%
  Increased alanine aminotransferase, number of subjects: 8
  Increased aspartate aminotransferase, number of subjects: 16
  Increased blood bilirubin, number of subjects: 6
  Increased brain natriuretic peptide, number of subjects: 10
  Increased conjugated bilirubin, number of subjects: 17
  Increased troponin T, number of subjects: 11
  overall incidence rate of adverse events: 100%
[2]; 3 months, FAS (N = 60)
  Progression-free survival rate: 26.7%
[2]; 3 months, PPS (N = 58)
  Progression-free survival rate: 28.6
[2]; 6 months, FAS (N = 60), hydrochloride
  Progression-free survival rate: 20.0%
[2]; 6 months, FAS (N = 60), listed as control group, hydrochloride
  Progression-free survival rate: 20%
[2]; 6 months, PPS (N = 58)
  Progression-free survival rate: 21.4
[2]; 12 months, FAS (N = 60)
  Progression-free survival rate: 0%
[2]; 12 months, PPS (N = 58)
  Progression-free survival rate: 0
[2]; 30 subjects per group
  disease control rate (PR+SD): 30%
  objective response rate (ORR): 6.7%
[2]; FAS (N = 60)
  Best overall response NA, number of subjects: 2
  Best overall response NA, percent of subjects: (6.7%)
  Best overall response PD, number of subjects: 19
  Best overall response PD, percent of subjects: (63.3%)
  Best overall response PR, percent of subjects: (6.7%)
  Best overall response SD, number of subjects: 7
  Best overall response SD, percent of subjects: (23.3%)
  Median PFS: 1.86 month
  Number of events (%) (PFS), percent: 83.3%
  Number of events (PFS): 25
[2]; FAS (N = 60), liposome 20 mg/m^2 or injection 14 mg/m^2 i.v. once every 4 weeks
  Best overall response PR, number of subjects: 2
[2]; PPS (N = 58)
  Best overall response NA, number of subjects: 0
  Best overall response NA, percent of subjects: (0.0) %
  Best overall response PD, number of subjects: 19
  Best overall response PD, percent of subjects: (67.9%)
  Best overall response PR, number of subjects: 2
  Best overall response PR, percent of subjects: (7.1%)
  Best overall response SD, number of subjects: 7
  Best overall response SD, percent of subjects: (28.6%)
  Median PFS: 1.86 month
  Number of events (%) (PFS), percent: 82.14%
  Number of events (PFS): 23
